Test results: patent US20240391862A1, “(1,4,5-TRISUBSTITUTED-1H-PYRAZOL-3-YL)OXY-2-ALKOXY ALKYL ACIDS AND THEIR DERIVATIVES, THEIR SALTS AND THEIR USE AS HERBICIDAL AGENTS” (Bayer AKtiengesellschaft, priority 2021, published 2024)

Key:
ORYSA [1] = assay: Pre-emergence herbicidal effect and crop plant compatibility, greenhouse pot test; type: in vivo, Oryza sativa; conditions: scored visually after about 3 weeks vs untreated controls
Text: (§1) Seeds of monocotyledonous and dicotyledonous weed plants and crop plants are placed in plastic or organic planting pots and covered with soil. The compounds of the invention, formulated in the form of wettable powders (WP) or as emulsion concentrates (EC), are then applied to the surface of the covering soil as aqueous suspension or emulsion with addition of 0.5% additive at a water application rate equivalent to 600 l/ha. After the treatment, the pots are placed in a greenhouse and kept under good growth conditions for the trial plants. After about 3 weeks, the effect of the preparations is scored visually in comparison with untreated controls as percentages. For example, 100% activity=the plants have died, 0% activity=like control plants.
(§2) Tables 1a to 19c below show the effects/crop compatibilities of selected compounds of the general formula (I) on various harmful plants at an application rate corresponding to 20 to 320 g/ha, which were obtained by the trial procedure specified above.
(§3) • ALOMY: Alopecurus myosuroides SETVI: Setaria viridis • AVEFA: Avena fatua POLCO: Fallopia convolvulus • AMARE: Amaranthus retroflexus ECHCG: Echinochloa crus-galli • LOLRJ: Lolium rigidum STEME: Stellaria media • VERPE: Veronica persica MATIN: Tripleurospermum inodorum • DIGSA: Digitaria sanguinalis ABUTH: Abutylon threophrasti • TRZAS: Triticum aestivum VIOTR: Viola tricolor • BRSNW: Brassica napus ZEAMX: Zea mays • PHBPU: Ipomoea purpurea GLXMA: Glycine max • ORYSA: Oryza sativa HORMU: Hordeum murinum

SETVI [2] = assay: Pre-emergence herbicidal effect, greenhouse pot test; type: in vivo, Setaria viridis; conditions: Setaria viridis, 504 h, 320 g/ha, scored visually after about 3 weeks vs untreated controls, read-out: Pre-emergence effect at 320 g/ha against SETVI in %
Text: as §1, §2, §3

ZEAMX [3] = assay: Post-emergence herbicidal effect and crop plant compatibility, greenhouse pot test; type: in vivo, Zea mays; conditions: Zea mays, 504 h, 80 g/ha, one-leaf stage, rated visually after about 3 weeks vs untreated controls, read-out: Post-emergence effect at 80 g/ha against ZEAMX in %
Method in brief: (§4)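 Visual % activity scored roughly 3 weeks post-spray against untreated plants, where 100% means death and 0% equals control. Plants were treated at the one-leaf stage, 2 to 3 weeks after sowing in sandy loam, at 20 to 320 g/ha.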

ORYSA [4] = assay: as above; type: in vivo, Oryza sativa; conditions: 320 g/ha, one-leaf stage, rated visually after about 3 weeks vs untreated controls
Method in brief: as §4

GLXMA = assay: Pre-emergence herbicidal effect and crop plant compatibility, greenhouse pot test; type: in vivo, Glycine max; conditions: scored visually after about 3 weeks vs untreated controls
Text: as §1, §2, §3

BRSNW = assay: as above; type: in vivo, Brassica napus; conditions: scored visually after about 3 weeks vs untreated controls
Text: as §1, §2, §3

VERPE = assay: Post-emergence herbicidal effect, greenhouse pot test; type: in vivo, Veronica persica; conditions: Veronica persica, 504 h, 320 g/ha, read-out: Post-emergence effect against VERPE in %
Method in brief: (§5)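 Greenhouse pot test: weeds and crops sown in sandy loam, sprayed post-emergence at one-leaf stage (2–3 weeks after sowing) with WP or EC formulations plus 0.5% additive at 600 l/ha water, rates 20–320 g/ha. Visual rating about 3 weeks later versus untreated controls (100% = dead, 0% = as control).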

ZEAMX [5] = assay: Pre-emergence herbicidal effect and crop plant compatibility, greenhouse pot test; type: in vivo, Zea mays; conditions: scored visually after about 3 weeks vs untreated controls
Text: as §1, §2, §3

ECHCG = assay: Post-emergence herbicidal effect, greenhouse pot test; type: in vivo, Echinochloa crus-galli; conditions: Echinochloa crus-galli, 504 h, 320 g/ha, read-out: Post-emergence effect against ECHCG in %
Method in brief: as §5

SETVI [6] = assay: as above; type: in vivo, Setaria viridis; conditions: Setaria viridis, 504 h, 320 g/ha, read-out: Post-emergence effect against SETVI in %
Method in brief: as §5

TRZAS = assay: Pre-emergence herbicidal effect and crop plant compatibility, greenhouse pot test; type: in vivo, Triticum aestivum; conditions: scored visually after about 3 weeks vs untreated controls
Text: as §1, §2, §3

AMARE = assay: Pre-emergence herbicidal effect, greenhouse pot test; type: in vivo, Amaranthus retroflexus; conditions: Amaranthus retroflexus, 504 h, 320 g/ha, scored visually after about 3 weeks vs untreated controls, read-out: Pre-emergence effect at 320 g/ha against AMARE in %
Text: as §1, §2, §3

MATIN = assay: Post-emergence herbicidal effect, greenhouse pot test; type: in vivo, Tripleurospermum inodorum; conditions: Tripleurospermum inodorum, 504 h, 320 g/ha, read-out: Post-emergence effect against MATIN in %
Method in brief: as §5

ALOMY = assay: as above; type: in vivo, Alopecurus myosuroides; conditions: Alopecurus myosuroides, 504 h, 320 g/ha, visual rating about 3 weeks after treatment, read-out: Post-emergence effect against ALOMY
Method in brief: as §5

Row | SMILES | Pre-emergence effect at 80 g/ha against ORYSA in % (ORYSA [1]) [%] | Pre-emergence effect at 320 g/ha against ORYSA in % (ORYSA [1]) [%] | pest or weed control at 320 g/ha (SETVI [2]) [%] | plant injury at 80 g/ha (ZEAMX [3]) [%] | Post-emergence effect at 320 g/ha against ORYSA in % (ORYSA [4]) [%] | Pre-emergence effect at 80 g/ha against GLXMA in % (GLXMA) [%] | Pre-emergence effect at 320 g/ha against GLXMA in % (GLXMA; 320 g/ha) [%] | Pre-emergence effect at 80 g/ha against BRSNW in % (BRSNW) [%] | Pre-emergence effect at 320 g/ha against BRSNW in % (BRSNW; 320 g/ha) [%] | pest or weed control at 320 g/ha (VERPE) [%] | Pre-emergence effect at 80 g/ha against ZEAMX in % (ZEAMX [5]) [%] | Pre-emergence effect at 320 g/ha against ZEAMX in % (ZEAMX [5]) [%] | pest or weed control at 320 g/ha (ECHCG) [%] | pest or weed control at 320 g/ha (SETVI [6]) [%] | Pre-emergence effect at 320 g/ha against TRZAS in % (TRZAS) [%] | pest or weed control at 320 g/ha (AMARE) [%] | pest or weed control at 320 g/ha (MATIN) [%] | Pre-emergence effect at 80 g/ha against TRZAS in % (TRZAS; 80 g/ha) [%] | pest or weed control at 320 g/ha (ALOMY) [%]
1 | CCOC(=O)C(OCC)Oc1nn(-c2ncccc2F)c(-c2ccc(Cl)cc2)c1Br (stereo not drawn) [Example I-02] | 0 | 0 | 80 | 10 | 10 | 0 | 0 | 0 | 0 |  |  |  |  |  |  |  |  |  | 
2 | COC(=O)C(OC)Oc1nn(-c2ncccc2F)c(-c2ccc(Cl)cc2)c1Br (stereo not drawn) [Example I-03] | 0 |  |  | 20 | 10 | 20 |  | 20 |  | 90 | 20 | 20 | 80 | 80 | 0 | 80 |  |  | 
3 | CCOC(=O)C(OCC)Oc1nn(-c2ncccc2F)c(-c2ccc(F)cc2F)c1Br (stereo not drawn) [Example I-08] | 0 | 0 |  |  |  | 0 |  |  |  | 80 | 0 | 10 | 80 | 80 | 0 |  | 80 | 0 | 90
